Laboratory results taken from PMC7815716, “Mechanistic basis of breast cancer resistance protein inhibition by new indeno[1,2-b]indoles” (Scientific Reports, 2021).
Several values for one entry are separate records, joined by “and”; a condition that tells them apart may be missing. Identical values can stand only once. Like-named read-outs stand apart in the source and are kept apart here.

How the values were obtained:
ABCG2 [1] = molecular target: T1, ABCG2 (Homo sapiens, UniProt Q9UNQ0); experiment: Inhibition of ABCG2-mediated mitoxantrone efflux (flow cytometry); type: cell-based; set-up: expressed in transfected cells; host or cells: HEK293; conditions: for inhibition at 30 min: human, probe mitoxantrone (10 µM), from IC50 fitted curves, HEK293-ABCG2, mitoxantrone, 100% = Ko143 0.5 µM, read-out: IMAX (%) ± SD, maximal inhibition percentage; for TR, therapeutic ratio (IG50/IC50): ratio between IG50 and IC50 values
T1 sequence (Q9UNQ0 1-655): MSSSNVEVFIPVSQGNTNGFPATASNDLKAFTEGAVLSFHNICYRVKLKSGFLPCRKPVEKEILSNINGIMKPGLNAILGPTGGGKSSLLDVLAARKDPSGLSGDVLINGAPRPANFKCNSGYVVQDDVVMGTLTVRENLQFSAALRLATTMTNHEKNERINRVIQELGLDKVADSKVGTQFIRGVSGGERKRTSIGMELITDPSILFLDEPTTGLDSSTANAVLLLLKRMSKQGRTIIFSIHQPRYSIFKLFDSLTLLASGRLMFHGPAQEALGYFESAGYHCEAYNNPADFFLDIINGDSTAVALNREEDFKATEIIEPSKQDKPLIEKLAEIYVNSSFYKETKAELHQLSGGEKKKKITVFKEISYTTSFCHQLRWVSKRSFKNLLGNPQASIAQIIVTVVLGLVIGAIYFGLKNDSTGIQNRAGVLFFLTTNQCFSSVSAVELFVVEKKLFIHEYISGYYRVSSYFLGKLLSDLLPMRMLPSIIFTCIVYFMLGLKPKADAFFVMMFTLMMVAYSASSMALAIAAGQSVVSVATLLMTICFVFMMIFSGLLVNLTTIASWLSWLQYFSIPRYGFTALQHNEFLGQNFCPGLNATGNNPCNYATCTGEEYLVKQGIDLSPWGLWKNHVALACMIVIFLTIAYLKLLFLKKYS
Description: ABCG2 inhibition assays were carried out on HEK293 WT and HEK293-ABCG2 cells. Cells were seeded at the density of 1 × 10^5 cells/well in 24 well culture plates and incubated for 48 h at 37 °C under 5% CO2. Cells were treated with compounds and 10 μM of mitoxantrone for 30 min at 37 °C and 5% CO2. After incubation the cells were washed with PBS, trypsinized and resuspended in ice cold PBS. The intracellular drug fluorescence was monitored with a FACS Calibur cytometer (Becton Dickinson) using the FL4 channel, with at least 10,000 events collected. The maximal fluorescence (taken as 100%) was determined with the difference between the mean fluorescence of HEK-ABCG2 cells incubated with 0.5 μM Ko143 (ABCG2 reference inhibitor) or by using the HEK293 WT cell line as a control and cells without inhibitor (mitoxantrone alone). The percent of inhibition was determined as previously described. For bimodulation assays the cells were concomitantly treated with 10 μM of one or two combined inhibitors under similar conditions as described previously. For washing assays, cells were treated with 10 μM concentrations of compounds for 30 min. Then, the medium with the inhibitor was removed and the cells were washed with PBS and incubated only with culture medium for different periods of time (0.5 and 3 h). After incubation, cells were exposed to 5 µM mitoxantrone for 30 min, and then analyzed by flow cytometry. The percentage of transport inhibition was calculated by the following equation: %Inhibition=C-S/I-S×100 where “C” corresponds to the intracellular fluorescence of cells in the presence of the tested compounds and substrate (mitoxantrone to ABCG2, Rhodamine 123 to ABCB1 and calcein to ABCC1), “S” corresponds to the intracellular fluorescence of cells in the presence of substrate alone, and “I” corresponds to the intracellular fluorescence of cells in the presence of the substrate and reference inhibitor (Ko143 to ABCG2, GF120918 to ABCB1 and verapamil to ABCC1).

[2] = Intrinsic cytotoxicity of compounds, MTT assay; type: cell-based, human; conditions: human, HEK293 WT and HEK293-ABCG2 cells, MTT, read-out: IG50 (µM) ± SD, cytotoxicity (half-maximal cell viability)
Description: (§1) Cell viability was evaluated with a 3-(4,5-dimethylthiazol-2-yl)-2,5-diphenyltetrazolium bromide (MTT) colorimetric assay. HEK293 WT and HEK293-ABCG2 cells were seeded into 96-well culture plates at a 1.5 × 10^4 cells/well density. After overnight incubation, the cells were treated with various concentrations of compounds (0–100 µM) for 72 h at 37 °C under 5% CO2. […] Sensitization experiments were also carried out on H460 and H460MX20 cells. For these experiments, H460 and H460MX20 cells were seeded into 96-well culture plates at 1.0 × 10^4 cells/well density. […] After the treatment, the culture medium was removed and 100 μL of a 0.5 mg.mL^−1 MTT solution was added. Cells were then incubated for 4 h at 37 °C under 5% CO2. The formazan crystals were dissolved with a solution of DMSO/ethanol (1:1) and the absorbance was measured at 570 nm using a Multiscan FC microplate reader (Thermo Scientific). The results were expressed as percentage of viable cells versus control cells (0.1% DMSO, v/v) taken as 100%.

ABCG2 [3] = system: ABCG2; set-up: method as in PMID 15930306; conditions: cited from earlier work
ABCG2 [4] = conditions: cited from earlier work
HEK293 WT cells = experiment: SN-38 cytotoxicity in control cells, MTT assay; type: cell-based, human
Description: as §1

ABCG2 [5] = molecular target: T1, ABCG2; conditions: previously published data, cited from earlier work
[6] = HEK293-ABCG2 cells, mitoxantrone 10 µM, 30 min, read-out: IC50 (µM) ± SD, inhibition of ABCG2-mediated mitoxantrone efflux

SMILES: COc1ccccc1CCn1c2c(c3c1-c1ccccc1C3=O)C(=O)CC(C)C2 (centres unmarked) [5a, 5-(2-Methoxyphenethyl)-7-methyl-5,6,7,8-tetrahydroindeno[1,2-b]indole-9,10-dione]
- melting point: 204 °C
- IC50 (ABCG2 [1]; [6]): 0.25 ± 0.01 µM
- inhibition at 30 min (ABCG2 [1]; HEK293-ABCG2 cells): 72.5 ± 3.72%
- TR, therapeutic ratio (IG50/IC50) (ABCG2 [1]): > 393.60

SMILES: O=C1c2ccccc2-c2c1c1c(n2CCc2ccccc2)CCC(Cc2ccccc2)C1=O (centres unmarked) [5b, 8-Benzyl-5-phenethyl-5,6,7,8-hexahydroindeno[1,2-b]indole-9,10-dione]
- IC50 (ABCG2 [1]; [6]): 0.45 ± 0.1 µM
- inhibition at 30 min (ABCG2 [1]; HEK293-ABCG2 cells): 113 ± 3.67%
- TR, therapeutic ratio (IG50/IC50) (ABCG2 [1]): 28.10

SMILES: COc1ccc2[nH]cc(CCn3c4c(c5c3-c3ccccc3C5=O)C(=O)CCC4)c2c1 [5c, 5-(2-(5-Methoxy-1H-indol-3-yl)ethyl)-5,6,7,8-tetrahydroindeno[1,2-b]indole-9,10-dione]
- melting point: 279 °C
- IC50 (ABCG2 [1]; [6]): 0.65 ± 0.03 µM
- inhibition at 30 min (ABCG2 [1]; HEK293-ABCG2 cells): 60 ± 4.04%
- TR, therapeutic ratio (IG50/IC50) (ABCG2 [1]): 56.41

SMILES: COc1cccc(CCn2c3c(c4c2-c2cc(O)ccc2C4=O)C(=O)CCC3)c1 [5d, 3-Hydroxy-5-(3-methoxyphenethyl)-5,6,7,8-tetrahydroindeno[1,2-b]indole-9,10-dione]
- melting point: 222 °C
- IC50 (ABCG2 [1]; [6]): 2.71 ± 0.14 µM
- inhibition at 30 min (ABCG2 [1]; HEK293-ABCG2 cells): 68.5 ± 0.68%
- TR, therapeutic ratio (IG50/IC50) (ABCG2 [1]): 9.85

SMILES: CC1CC(=O)c2c3c(n(CCc4ccccc4)c2C1)-c1cccc(O)c1C3=O (centres unmarked) [5f, 1-Hydroxy-7-Methyl-5-phenethyl-5,6,7,8-tetrahydroindeno[1,2-b]indole-9,10-dione]
- melting point: 246 °C
- IC50 (ABCG2 [1]; [6]): 0.18 ± 0.02 µM
- inhibition at 30 min (ABCG2 [1]; HEK293-ABCG2 cells): 48.4 ± 0.8%
- TR, therapeutic ratio (IG50/IC50) (ABCG2 [1]): 153.24

SMILES: CC1CC(=O)c2c3c(n(CCc4ccccc4)c2C1)-c1c(O)cccc1C3=O (centres unmarked) [5g, 4-Hydroxy-7-methyl-5-phenethyl-5,6,7,8-tetrahydroindeno[1,2-b]indole-9,10-dione]
- melting point: 283 °C
- IC50 (ABCG2 [1]; [6]): 0.44 ± 0.03 µM
- inhibition at 30 min (ABCG2 [1]; HEK293-ABCG2 cells): 65.2 ± 0.94%
- TR, therapeutic ratio (IG50/IC50) (ABCG2 [1]): 58.79

SMILES: COc1ccccc1CCn1c2c(c3c1-c1cccc(O)c1C3=O)C(=O)CCC2 [5h, 1-Hydroxy-5-(2-methoxyphenethyl)-5,6,7,8-tetrahydroindeno[1,2-b]indole-9,10-dione]
- melting point: 173 °C
- IC50 (ABCG2 [1]; [6]): 0.42 ± 0.07 µM
- inhibition at 30 min (ABCG2 [1]; HEK293-ABCG2 cells): 69.6 ± 1.14%
- TR, therapeutic ratio (IG50/IC50) (ABCG2 [1]): 57.21

SMILES: COc1ccccc1CCn1c2c(c3c1-c1cccc(O)c1C3=O)C(=O)CC(C)C2 (centres unmarked) [5i, 1-Hydroxy-7-methyl-5-(2-methoxyphenethyl)-5,6,7,8-tetrahydroindeno[1,2-b]indole-9,10-dione]
- IC50 at 72 h [2]: 20 µM
- IC50 (ABCG2 [1]; [6]): 0.07 ± 0.02 µM
- inhibition at 30 min (ABCG2 [1]; HEK293-ABCG2 cells): 62.83 ± 0.48%
- TR, therapeutic ratio (IG50/IC50) (ABCG2 [1]): 293.66

SMILES: COc1ccccc1CCn1c2c(c3c1-c1cccc(OCC=C(C)C)c1C3=O)C(=O)CCC2 [5j, 5-(2-Methoxyphenethyl)-1-(3-methylbut-2-enyloxy)-5,6,7,8-tetrahydroindeno[1,2-b]indole-9,10-dione]
- melting point: 118 °C
- IC50 (ABCG2 [1]; [6]): 0.48 ± 0.08 µM
- inhibition at 30 min (ABCG2 [1]; HEK293-ABCG2 cells): 85.6 ± 2.59%
- TR, therapeutic ratio (IG50/IC50) (ABCG2 [1]): 32.86

SMILES: COc1ccccc1CCn1c2c(c3c1-c1c(OCC=C(C)C)cccc1C3=O)C(=O)CCC2 [5k, 5-(2-Methoxyphenethyl)-4-(3-methylbut-2-enyloxy)-5,6,7,8-hexahydroindeno[1,2-b]indole-9,10-dione]
- IC50 (ABCG2 [1]; [6]): 0.92 ± 0.1 µM
- inhibition at 30 min (ABCG2 [1]; HEK293-ABCG2 cells): 116 ± 2.36%
- TR, therapeutic ratio (IG50/IC50) (ABCG2 [1]): 22.85

SMILES: COc1ccccc1CCn1c2c(c3c1-c1cccc(OCC=C(C)C)c1C3=O)C(=O)CC(C)C2 (centres unmarked) [5l, 5-(2-Methoxyphenethyl)-7-methyl-1-((3-methylbut-2-enyl)oxy)-5,6,7,8-tetrahydroindeno[1,2-b]indole-9,10-dione]
- IC50 (ABCG2 [1]; [6]): 0.24 ± 0.03 µM
- inhibition at 30 min (ABCG2 [1]; HEK293-ABCG2 cells): 82.3 ± 3.44%
- TR, therapeutic ratio (IG50/IC50) (ABCG2 [1]): 59.72

SMILES: COc1ccccc1CCn1c2c(c3c1-c1c(OCC=C(C)C)cccc1C3=O)C(=O)CC(C)C2 (centres unmarked) [5m, 5-(2-Methoxyphenethyl)-7-methyl-4-((3-methylbut-2-enyl)oxy)-5,6,7,8-hexahydroindeno[1,2-b]indole-9,10-dione]
- IC50 (ABCG2 [1]; [6]): 0.19 ± 0.07 µM
- inhibition at 30 min (ABCG2 [1]; HEK293-ABCG2 cells): 87.4 ± 2.46%
- TR, therapeutic ratio (IG50/IC50) (ABCG2 [1]): 66.23

SMILES: CC(C)=CCOc1cccc2c1-c1c(c3c(n1CCc1ccccc1)CC(C)CC3=O)C2=O (centres unmarked) [5n]
- IC50 (ABCG2 [1]; [6]): 4.09 ± 0.56 µM
- inhibition at 30 min (ABCG2 [1]; HEK293-ABCG2 cells): 133 ± 3.35%
- TR, therapeutic ratio (IG50/IC50) (ABCG2 [1]): 5.26

SMILES: CC(C)=CCc1c(O)cc2oc(-c3ccccc3)cc(=O)c2c1O [6-prenylchrysin]
- Maximal inhibition of ABCG2 (ABCG2 [3]): approximately 70%

SMILES: COc1cc2c(cc1OC)-c1c(c3c(O)cc(C)cc3n1CCc1ccccc1)C2=O [6e, 9-Hydroxy-2,3-dimethoxy-7-methyl-5-phenethylindeno[1,2-b]indol-10(5H)-one]
- melting point: 198 °C
- IC50 (ABCG2 [1]): 0.2 ± 0.04 µM
- inhibition at 30 min (ABCG2 [1]; HEK293-ABCG2 cells): 66.8 ± 1.79%
- TR, therapeutic ratio (IG50/IC50) (ABCG2 [1]): 212.38

SMILES: COc1ccc2c3c([nH]c2c1)[C@H](CC(C)C)N1C(=O)[C@H](CCC(=O)OC(C)(C)C)NC(=O)[C@@H]1C3 [Ko143]
- Effect on the ATPase activity of ABCG2 (ABCG2 [4]): inhibit the ATPase activity

SMILES: CCc1c2c(nc3ccc(O)cc13)-c1cc3c(c(=O)n1C2)COC(=O)[C@]3(O)CC [SN-38]
- FR, fold reversal (HEK293 WT cells; SN-38 alone (reference)): 1.00
- IC50 (HEK293 WT cells; SN-38 alone, 72 h, read-out: IG50 (SN-38 nM ± SD)): 8.24 nM and 7.53 nM and 10 nM and 7.58 nM

SMILES: O=C1c2c(O)ccc(O)c2C(=O)c2c(NCCNCCO)ccc(NCCNCCO)c21 [mitoxantrone]
- Stimulation of the ATPase activity of ABCG2 (ABCG2 [4]): 40%

SMILES: CC1CC(=O)c2c3c(n(CCc4ccccc4)c2C1)-c1ccccc1C3=O (centres unmarked) [p4h]
- TR, therapeutic ratio (IG50/IC50) (ABCG2 [5]): > 435.00

SMILES: COc1ccccc1CCn1c2c(c3c1-c1ccccc1C3=O)C(=O)CCC2 [p4j]
- TR, therapeutic ratio (IG50/IC50) (ABCG2 [5]): 130.00

SMILES: COc1cccc(CCn2c3c(c4c2-c2ccccc2C4=O)C(=O)CCC3)c1 [p4k]
- TR, therapeutic ratio (IG50/IC50) (ABCG2 [5]): 41.00

SMILES: Cc1cc(O)c2c3c(n(CCc4ccccc4)c2c1)-c1ccccc1C3=O [p5h]
- TR, therapeutic ratio (IG50/IC50) (ABCG2 [5]): 360.00
- IC50 (ABCG2 [5]; read-out: IC50 (µM) ± SD, inhibition of ABCG2-mediated mitoxantrone efflux): 0.15 ± 0.01 µM

SMILES: COc1cc2nc(N3CCN(C(=O)c4ccco4)CC3)nc(N)c2cc1OC [prazosin]
- Stimulation of the ATPase activity of ABCG2 (ABCG2 [4]): 100%
